For this assay, the system named is HEK293T cells stably transfected with 8×TBD luciferase reporter and pRLTK. The assay can be described thus: YAP Reporter Assay (8×TBD firefly luciferase reporter). To be noted: Homo sapiens, HEK-293T; HEK293T 8×TBD reporter cells, 24-hr incubation, top concentration 3 μM, 1:3 dilution, 10 points. The format is cell-based. As to the method: HEK293T cells stably transfected with 8×TBD luciferase reporter and pRLTK in 384-well plates were treated with the test compounds, starting from 3 μM (final concentration in assay plate), 1:3 dilution, and 10 points in quadruplicates. Post 24-hr incubation with compounds at 37° C. and 5% CO2, cells were lysed and 8×TBD-driven firefly luciferase and control TK-driven renilla luciferase activities were measured using Promega Dual-Luciferase Reporter Assay System.
Reagents: The reagents used for this study are: DMEM: Invitrogen #11960077, Dual-Glo Luciferase Assay System: Promega-E2980, Puromycin Dihydrochloride: Invitrogen-A1113803, 384-well plate: PerkinElmer-6007480, L-GLUTAMINE: Invitrogen-25030164, Hygromycin B: Invitrogen-10687010, and Penicillin-Streptomycin: Merk-TMS-AB2-C
Media: The media used for this assay were: Culture Medium: DMEM+1 ug/mL puromycin+200 ug/mL hygromycin (with 10% FBS+1 mM L-glutamine); and Assay Medium: DMEM (with 10% FBS+1 mM L-glutamine+1×P/S).
Cell Plating: The appropriate media was warmed at 37° C. by water bath: Culture Medium, Assay Medium, 1*D-PBS, 0.05% trypsin-EDTA. The cells were trypsinized after removing all media, then washed with 1* sterile D-PBS and then with 2 ml 0.05% trypsin-EDTA. The cells were then incubated at RT for one minute. Then 10 ml/75 cm2 flask Assay Medium was added to each flask. Using a 10 ml pipette, the cells were then gently resuspended in the media, until the clumps completely disappeared. The cells were then transferred into 50 ml centrifuge tubes and were centrifuged at 800 rpm for 5 mins. The medium was removed and the cells were resuspended with Assay Medium. An aliquot of cells was used to count the cell density (cells/ml). The cell suspension was then diluted with Assay Medium to a concentration of 6×10^4 cells/ml. 50 ul cells suspension was then plated to 384-well plate (PerkinElmer-6007480), 3×10^3 cells/well and the cells were incubated in an incubator at 37° C., 5% CO2.
Compound Treatment: In the afternoon (incubation of the plate with 3-4 hrs), the test compounds were added by Echo, starting from 3 uM (final concentration in the assay plate), 1:3 dilution, 10 points, quadruplicates. The plate was placed at 37° C., 5% CO2 incubator for 24 hrs.
Detection: The Dual-Glo Luciferase Reagent was prepared by transferring the contents of one bottle of Dual-Glo Luciferase Buffer to one bottle of Dual-Glo Luciferase Substrate to create the Dual-Glo Luciferase Reagent. Mixing was performed by inversion until the substrate was thoroughly dissolved. After mixing, the reagent was aliquoted into 15 ml tubes. In the afternoon (24 hrs post compound treatment), the DMEM+ medium in the 384 well plates were aspirated by Microplate Washer.
Measuring firefly luciferase activity: 20 ul Dual-Glo Luciferase Reagent was added to the 384-well plates. The plates were protected from light to prevent interference with the assay. The plates were shaken for 1 min followed centrifuging plates at 1000 rpm for 30 seconds. After waiting at least 10 minutes, the firefly luminescence was measured by Envision.
Measuring renilla luciferase activity: 20 ul Stop-Glo Reagent was added to the 384-well plates. The plates were shaken for 1 min and then centrifuged at 1000 rpm for 30 seconds. After waiting at least 10 minutes, the renilla luminescence was measured by Envision.
Compound IC50 and maximum inhibition on the firefly luciferase and renilla luciferase activities were reported separately.
(In general: Reporter assays use an easily measured gene product as a stand-in for the process of interest.)

Some results are limits rather than exact numbers.

On to `CN(C)C(=O)c1ccc(Nc2ccc(C(F)(F)F)cc2)c(-c2nnn(C)n2)c1` [Compound 13, N,N-dimethyl-3-(2-methyl-2H-tetrazol-5-yl)-4-((4-(trifluoromethyl)phenyl)amino) benzamide], for which the IC50 (commonly the point on the concentration scale where inhibition reaches its midpoint) fell in the range of 100 to 1000 nM.

Regarding `COC(=O)c1ccc(Nc2ccc(C(=O)NC(C)C)cc2)c(-c2nnn(C)n2)c1` [Compound 12, methyl 4-((4-(isopropylcarbamoyl)phenyl)amino)-3-(2-methyl-2H-tetrazol-5-yl)benzoate], the IC50 was 1000 to 3000 nM.

In turn, `COC(=O)c1ccc(Nc2ccc(C(F)(F)F)cc2)c(-c2cc(N)ncn2)c1` [Compound 56, methyl 3-(6-aminopyrimidin-4-yl)-4-[4-(trifluoromethyl)anilino] benzoate] came in with an IC50 of at most 100 nM.

On to `CN(C)C(=O)c1ccc(Nc2cccc(C(F)(F)F)c2)c(-c2nnn(C)n2)c1` [Compound 19, N,N-dimethyl-3-(2-methyl-2H-tetrazol-5-yl)-4-((3-(trifluoromethyl)phenyl)amino) benzamide], for which the IC50 was in the range of 100 to 1000 nM. Compound `O=C(O)c1ccc(Nc2ccc(C(F)(F)F)cc2)c(-c2ccc(Cl)cn2)c1` [Compound 52, 3-(5-chloro-2-pyridyl)-4-[4 (trifluoromethyl)anilino] benzoic acid] had a half-maximal inhibitory concentration (IC50) of at most 100 nM. For `O=C(O)c1ccc(Nc2ccc(C(F)(F)F)cc2)c(-c2cc(Cl)ccn2)c1` [Compound 55, 3-(4-chloro-2-pyridyl)-4-[4-(trifluoromethyl)anilino] benzoic acid], the IC50 was at most 100 nM. For the compound `O=C(O)c1ccc(Nc2ccc(C(F)(F)F)cc2)c(-c2cc(F)ccn2)c1` [Compound 49, 3-(4-fluoro-2-pyridyl)-4-[4-(trifluoromethyl)anilino] benzoic acid], the IC50 was at most 100 nM. On to `CNC(=O)c1ccc(Nc2ccc(C(F)(F)F)cc2)c(-c2nnn(C)n2)c1` [Compound 8, N-methyl-3-(2-methyl-2H-tetrazol-5-yl)-4-((4-(trifluoromethyl)phenyl)amino) benzamide], for which the IC50 was at most 100 nM.

For `O=C(O)c1ccc(Nc2ccc(C(F)(F)F)cc2)c(-c2cccnn2)c1` [Compound 46, 3-pyridazin-3-yl-4-[4-(trifluoromethyl)anilino] benzoic acid], the 50% inhibitory concentration (IC50) is at most 100 nM. The compound `O=C(O)c1ccc(Nc2ccc(C(F)(F)F)cc2)c(-c2cnccn2)c1` [Compound 43, 3-(pyrazin-2-yl)-4-((4-(trifluoromethyl)phenyl)amino) benzoic acid] registered an IC50 of at most 100 nM. `CC(C)NC(=O)c1ccc(Nc2ccc(C(F)(F)F)cc2)c(-c2nnn(C)n2)c1` [Compound 11, N-isopropyl-3-(2-methyl-2H-tetrazol-5-yl)-4-((4-(trifluoromethyl)phenyl)amino) benzamide] gave an IC50 of at most 100 nM. Under `O=C(O)c1ccc(Nc2ccc(C(F)(F)F)cc2)c(-c2nnc(C(F)(F)F)s2)c1` [Compound 58, 4-[4-(trifluoromethyl)anilino]-3-[5-(trifluoromethyl)-1,3,4-thiadiazol-2-yl]benzoic acid] stands at most 100 nM; under `Cn1nnc(-c2cc(C(=O)NCCOCCOCCOCCOCCNC(=O)OC(C)(C)C)ccc2Nc2ccc(C(F)(F)F)cc2)n1` [Compound 63, tert-butyl (1-(3-(2-methyl-2H-tetrazol-5-yl)-4-((4-(trifluoromethyl)phenyl)amino)phenyl)-1-oxo-5,8,11,14-tetraoxa-2-azahexadecan-16-yl)carbamate], 100 to 1000 nM; under `O=C(O)c1ccc(Nc2ccc(C(F)(F)F)cc2)c(-c2ccccn2)c1` [Compound 39, 3-(pyridin-2-yl)-4-((4-(trifluoromethyl)phenyl)amino) benzoic acid], at most 100 nM. Then `CCNC(=O)c1ccc(Nc2ccc(C(F)(F)F)cc2)c(-c2nnn(C)n2)c1` [Compound 10, N-ethyl-3-(2-methyl-2H-tetrazol-5-yl)-4-((4-(trifluoromethyl)phenyl)amino) benzamide], with at most 100 nM.
